From patent US20240423992A1, “BIOMARKERS FOR TREATING LIVER DISORDERS WITH THR-B AGONISTS AND RELATED USES” (Madrigal Pharmaceuticals, Inc., priority 2023, published 2024)

Assays:
Format in all cases: in vivo, human
[1] = tested on: adults with nonalcoholic fatty liver disease (NAFLD)/presumed nonalcoholic steatohepatitis (NASH); assay: 52-week Phase 3 trial (Example 1): hepatic fat by MRI-PDFF
Protocol: A 52-week randomized, double-blind, placebo-controlled Phase 3 trial was conducted to evaluate the safety and effect of resmetirom, an oral, once-daily, liver-targeted thyroid hormone receptor-β selective agonist, on multiple biomarkers in adults with nonalcoholic fatty liver disease (NAFLD)/presumed nonalcoholic steatohepatitis (NASH). Patients were randomized to three double-blind arms (100 mg resmetirom, 80 mg resmetirom, or placebo) or one open-label arm (100 mg resmetirom). Common concomitant medications across the 4 arms were antidiabetes drugs (such as glucagon-like peptide-1 receptor agonists (GLP-1 RAs), metformin, pioglitazone, and sodium/glucose cotransporter-2 inhibitors (SGLT2i)) and drugs to manage dyslipidemia (statins).

[2] = tested on: patients with Nonalcoholic Steatohepatitis; assay: Phase 3 trial in Nonalcoholic Steatohepatitis (Example 2): NASH resolution and fibrosis improvement on biopsy
Protocol: (§1) A randomized, double-blind, placebo-controlled Phase 3 trial was conducted. Patients were randomly assigned to receive resmetirom 80 mg, resmetirom 100 mg, or placebo administered orally once daily. Screening biopsy results were used as baseline for histologic variables and a second biopsy was performed at Week 52.

[3] = tested on: patients with Nonalcoholic Steatohepatitis; assay: Phase 3 trial in Nonalcoholic Steatohepatitis (Example 2): thyroid hormone levels
Protocol: as §1

[4] = Resmetirom 80 mg, Week 52, not on thyroxine
[5] = Resmetirom 80 mg, Week 52, thyroxine-treated
[6] = Resmetirom 100 mg, Week 52, not on thyroxine
[7] = Resmetirom 100 mg, Week 52, thyroxine-treated
[8] = independent of thyroxine replacement

FT3/rT3 CFB, LS Mean Difference from PBO ([3]; Resmetirom 80 mg, Week 52): 0.06 | FT3/rT3 LS Mean CFB (SE) ([3]; Resmetirom 80 mg, Week 52): 0.06 (0.004) | FT3 CFB, LS Mean Difference from PBO ([3]; Resmetirom 80 mg, Week 52): 0.02 ng/L | FT3 LS Mean CFB (SE) ([3]; Resmetirom 80 mg, Week 52): −0.01 (0.030) ng/L | FT4 % CFB, LS Mean Difference from PBO ([3]; Resmetirom 80 mg, Week 52): −16.6% | FT4 CFB, LS Mean Difference from PBO ([3]; Resmetirom 80 mg, Week 52): -0.19 ng/dL | FT4 LS Mean % CFB (SE) ([3]; Resmetirom 80 mg, Week 52): −13.9 (0.96) % | FT4 LS Mean CFB (SE) ([3]; Resmetirom 80 mg, Week 52): −0.17 (0.011) ng/dL | TBG CFB, LS Mean Difference from PBO ([3]; Resmetirom 80 mg, Week 52): -1.9 mg/L | TBG LS Mean CFB (SE) ([3]; Resmetirom 80 mg, Week 52): −0.32 (0.45) mg/L | TSH CFB, LS Mean Difference from PBO ([3]; Resmetirom 80 mg, Week 52): −0.18 mIU/L | TSH LS Mean CFB (SE) ([3]; Resmetirom 80 mg, Week 52): −0.28 (0.059) mIU/L | rT3 CFB, LS Mean Difference from PBO ([3]; Resmetirom 80 mg, Week 52): -4.73 ng/dL | rT3 LS Mean CFB (SE) ([3]; Resmetirom 80 mg, Week 52): −4.6 (0.31) ng/dL | FT3/rT3 CFB, LS Mean Difference from PBO [3, 4]: 0.06 | FT3/rT3 LS Mean CFB (SE) [3, 4]: 0.06 (0.005) | FT3 CFB, LS Mean Difference from PBO [3, 4]: 0.01 ng/L | FT3 LS Mean CFB (SE) [3, 4]: −0.01 (0.032) ng/L | FT4 % CFB, LS Mean Difference from PBO [3, 4]: −16.3% | FT4 CFB, LS Mean Difference from PBO [3, 4]: -0.18 ng/dL | FT4 LS Mean % CFB (SE) [3, 4]: −13.8 (0.97) % | FT4 LS Mean CFB (SE) [3, 4]: −0.16 (0.011) ng/dL | TBG CFB, LS Mean Difference from PBO [3, 4]: -1.8 mg/L | TBG LS Mean CFB (SE) [3, 4]: −0.19 (0.47) mg/L | TSH CFB, LS Mean Difference from PBO [3, 4]: −0.15 mIU/L | TSH LS Mean CFB (SE) [3, 4]: −0.23 (0.056) mIU/L | rT3 CFB, LS Mean Difference from PBO [3, 4]: -4.5 ng/dL | rT3 LS Mean CFB (SE) [3, 4]: −4.5 (0.33) ng/dL | FT3/rT3 CFB, LS Mean Difference from PBO [3, 5]: 0.06 | FT3/rT3 LS Mean CFB (SE) [3, 5]: 0.05 (0.011) | FT3 CFB, LS Mean Difference from PBO [3, 5]: 0.05 ng/L | FT3 LS Mean CFB (SE) [3, 5]: 0.04 (0.089) ng/L | FT4 % CFB, LS Mean Difference from PBO [3, 5]: −17.9% | FT4 CFB, LS Mean Difference from PBO [3, 5]: -0.21 ng/dL | FT4 LS Mean % CFB (SE) [3, 5]: −14.0 (3.6) % | FT4 LS Mean CFB (SE) [3, 5]: −0.18 (0.041) ng/dL | TBG CFB, LS Mean Difference from PBO [3, 5]: -2.6 mg/L | TBG LS Mean CFB (SE) [3, 5]: −1.1 (1.4) mg/L | TSH CFB, LS Mean Difference from PBO [3, 5]: −0.41 mIU/L | TSH LS Mean CFB (SE) [3, 5]: −0.63 (0.27) mIU/L | rT3 CFB, LS Mean Difference from PBO [3, 5]: -5.1 ng/dL | rT3 LS Mean CFB (SE) [3, 5]: −5.1 (0.94) ng/dL | FT3/rT3 CFB, LS Mean Difference from PBO ([3]; Resmetirom 100 mg, Week 52): 0.07 | FT3/rT3 LS Mean CFB (SE) ([3]; Resmetirom 100 mg, Week 52): 0.06 (0.004) | FT3 CFB, LS Mean Difference from PBO ([3]; Resmetirom 100 mg, Week 52): -0.05 ng/L | FT3 LS Mean CFB (SE) ([3]; Resmetirom 100 mg, Week 52): −0.08 (0.031) ng/L | FT4 % CFB, LS Mean Difference from PBO ([3]; Resmetirom 100 mg, Week 52): −20.7% | FT4 CFB, LS Mean Difference from PBO ([3]; Resmetirom 100 mg, Week 52): -0.24 ng/dL | FT4 LS Mean % CFB (SE) ([3]; Resmetirom 100 mg, Week 52): −18.1 (0.97) % | FT4 LS Mean CFB (SE) ([3]; Resmetirom 100 mg, Week 52): −0.22 (0.011) ng/dL | TBG CFB, LS Mean Difference from PBO ([3]; Resmetirom 100 mg, Week 52): -2.2 mg/L | TBG LS Mean CFB (SE) ([3]; Resmetirom 100 mg, Week 52): −0.60 (0.45) mg/L | TSH CFB, LS Mean Difference from PBO ([3]; Resmetirom 100 mg, Week 52): −0.10 mIU/L | TSH LS Mean CFB (SE) ([3]; Resmetirom 100 mg, Week 52): −0.20 (0.060) mIU/L | rT3 CFB, LS Mean Difference from PBO ([3]; Resmetirom 100 mg, Week 52): -5.2 ng/dL | rT3 LS Mean CFB (SE) ([3]; Resmetirom 100 mg, Week 52): −5.1 (0.32) ng/dL | FT3/rT3 CFB, LS Mean Difference from PBO [3, 6]: 0.07 | FT3/rT3 LS Mean CFB (SE) [3, 6]: 0.06 (0.005) | FT3 CFB, LS Mean Difference from PBO [3, 6]: -0.06 ng/L | FT3 LS Mean CFB (SE) [3, 6]: −0.08 (0.033) ng/L | FT4 % CFB, LS Mean Difference from PBO [3, 6]: −20.0% | FT4 CFB, LS Mean Difference from PBO [3, 6]: -0.23 ng/dL | FT4 LS Mean % CFB (SE) [3, 6]: −17.6 (1.0) % | FT4 LS Mean CFB (SE) [3, 6]: −0.21 (0.011) ng/dL | TBG CFB, LS Mean Difference from PBO [3, 6]: -1.8 mg/L | TBG LS Mean CFB (SE) [3, 6]: −0.21 (0.49) mg/L | TSH CFB, LS Mean Difference from PBO [3, 6]: −0.12 mIU/L | TSH LS Mean CFB (SE) [3, 6]: −0.20 (0.058) mIU/L | rT3 CFB, LS Mean Difference from PBO [3, 6]: -5.1 ng/dL | rT3 LS Mean CFB (SE) [3, 6]: −4.9 (0.34) ng/dL | FT3/rT3 CFB, LS Mean Difference from PBO [3, 7]: 0.06 | FT3/rT3 LS Mean CFB (SE) [3, 7]: 0.06 (0.010) | FT3 CFB, LS Mean Difference from PBO [3, 7]: -0.01 ng/L | FT3 LS Mean CFB (SE) [3, 7]: −0.03 (0.081) ng/L | FT4 % CFB, LS Mean Difference from PBO [3, 7]: −24.4% | FT4 CFB, LS Mean Difference from PBO [3, 7]: -0.29 ng/dL | FT4 LS Mean % CFB (SE) [3, 7]: −20.6 (3.3) % | FT4 LS Mean CFB (SE) [3, 7]: −0.26 (0.037) ng/dL | TBG CFB, LS Mean Difference from PBO [3, 7]: -4.6 mg/L | TBG LS Mean CFB (SE) [3, 7]: −3.1 (1.3) mg/L | TSH CFB, LS Mean Difference from PBO [3, 7]: 0.09 mIU/L | TSH LS Mean CFB (SE) [3, 7]: −0.13 (0.25) mIU/L | rT3 CFB, LS Mean Difference from PBO [3, 7]: -6.3 ng/dL | rT3 LS Mean CFB (SE) [3, 7]: −6.3 (0.85) ng/dL | Thyroid hormone indices ([3]; in vivo): not clinically impacted
SMILES: CC(C)c1cc(Oc2c(Cl)cc(-n3nc(C#N)c(=O)[nH]c3=O)cc2Cl)n[nH]c1=O [Resmetirom, 2-[3,5-dichloro-4-[(6-oxo-5-propan-2-yl-1H-pyridazin-3-yl)oxy]phenyl]-3,5-dioxo-1,2,4-triazine-6-carbonitrile]
hepatic fat reduction, 80 mg compared with 100 mg ([1]; 80 mg resmetirom, in general): less effective than 100 mg resmetirom | hepatic fat (MRI-PDFF), change from baseline ([1]; Week 52, all key patient subgroups): reduced hepatic fat from baseline | hepatic fat reduction by subgroup ([1]; weight gain ≥5% or <120% increase in SHBG): lower hepatic fat reduction | hepatic fat reduction by subgroup ([1]; weight loss ≥5% or ≥120% increase from baseline in SHBG): greater reduction in hepatic fat | NASH resolution / fibrosis improvement, 100 mg compared with 80 mg ([2]; 100 mg resmetirom group, except in patients ≥65 years): generally outperformed the 80 mg group | patients achieving NASH resolution or fibrosis improvement compared with placebo ([2]; Week 52 biopsy, across subgroups): significantly more resmetirom-treated patients achieving either NASH resolution or fibrosis improvement | response at both endpoints (NASH resolution, fibrosis improvement) by subgroup ([2]; patients with ≥30% liver fat reduction or SHBG increase ≥120%): greater response | effect on free triiodothyronine (FT3) [3, 8]: no effect | effect on thyroid-stimulating hormone (TSH) [3, 8]: no effect | reduction of free thyroxine (FT4) ([3]; resmetirom groups): 16-19%
